Test results taken from ChEMBL document CHEMBL1122811, “Structure-activity studies on antidepressant 2,2-diarylethylamines” (J Med Chem, 1984).
Activity calls are given as the source filed them.

Columns and labels:
[1] = Compound was evaluated for 50% lethal dose in mice; LD50 range 100-300 mg/kg; format: ADME, organism-based; conditions: mouse, in vivo
Mus musculus [2] = test: Antidepressant activity measured by maximal electroshock seizure threshold (MEST) assay in untreated mice after ip administration; format: functional
Mus musculus [3] = test: Antidepressant activity measured by maximal electroshock seizure threshold (MEST) assay in TBZ treated mice after ip administration; format: functional
Mus musculus [4] = test: Antidepressant activity measured by tetrabenazine (TBZ) induced ptosis in mice after intraperitoneal administration; format: functional; conditions: ip
Mus musculus [5] = organism: Mus musculus; test: Antidepressant activity measured by effects on […] (TBZ) inhibited exploratory activity.; format: functional
Mus musculus [6] = test: Compound was evaluated for antidepressant activity measured by tetrabenazine (TBZ) induced ptosis in mice after 60 mg/kg intraperitoneal administration; inactive; format: functional, organism-based; design: dose 60 mg/kg
Mus musculus [7] = test: Compound was evaluated for antidepressant activity measured by tetrabenazine (TBZ) induced exploratory activity in mice after 60 mg/kg intraperitoneal administration; inactive; format: functional, organism-based; design: dose 60 mg/kg
[8] = Compound was evaluated for 50% lethal dose in mice; LD50 range is 30-100; format: ADME, organism-based; conditions: mouse, in vivo
[9] = Compound was evaluated for 50% lethal dose in mice; LD50 range is 100-300; format: ADME, organism-based; conditions: mouse, in vivo
Mus musculus [10] = test: Compound was evaluated for antidepressant activity measured by tetrabenazine (TBZ) induced exploratory activity in mice after 30 mg/kg intraperitoneal administration; Inactive; format: functional, organism-based; design: dose 30 mg/kg
Mus musculus [11] = test: Compound was evaluated for antidepressant activity measured by tetrabenazine (TBZ) induced ptosis in mice after 30 mg/kg intraperitoneal administration; Inactive; format: functional, organism-based; design: dose 30 mg/kg
Mus musculus [12] = test: Compound was evaluated for antidepressant activity measured by tetrabenazine (TBZ) induced ptosis in mice after 10 mg/kg intraperitoneal administration; Inactive; format: functional, organism-based; design: dose 10 mg/kg
Mus musculus [13] = test: Compound was evaluated for antidepressant activity measured by tetrabenazine (TBZ) induced exploratory activity in mice after 30 mg/kg intraperitoneal administration; inactive; format: functional, organism-based; design: dose 30 mg/kg
Mus musculus [14] = test: Compound was evaluated for antidepressant activity measured by tetrabenazine (TBZ) induced ptosis in mice after 30 mg/kg intraperitoneal administration; inactive; format: functional, organism-based; design: dose 30 mg/kg
[15] = Compound was evaluated for 50% lethal dose in mice; LD50 range 30-100 mg/kg; format: ADME, organism-based; conditions: mouse, in vivo
Mus musculus [16] = test: Compound was evaluated for antidepressant activity measured by tetrabenazine (TBZ) induced ptosis in mice after intraperitoneal administration; Lethal at 60 Mg/kg; format: functional; conditions: ip
Mus musculus [17] = test: Compound was evaluated for antidepressant activity measured by tetrabenazine (TBZ) induced exploratory activity in mice after 60 mg/kg intraperitoneal administration; Inactive; format: functional, organism-based; design: dose 60 mg/kg
Mus musculus [18] = test: Compound was evaluated for antidepressant activity measured by tetrabenazine (TBZ) induced exploratory activity in mice after 30 mg/kg intraperitoneal administration; format: functional; conditions: ip
Mus musculus [19] = test: Compound was evaluated for antidepressant activity measured by tetrabenazine (TBZ) induced ptosis in mice after 30 mg/kg intraperitoneal administration; format: functional; conditions: ip
Mus musculus [20] = test: Meso form was evaluated for antidepressant activity measured by tetrabenazine (TBZ) induced exploratory activity in mice after intraperitoneal administration; format: functional; conditions: ip
Mus musculus [21] = test: dl form was evaluated for antidepressant activity measured by tetrabenazine (TBZ) induced ptosis in mice after intraperitoneal administration; format: functional; conditions: ip
Mus musculus [22] = test: dl form was evaluated for antidepressant activity measured by tetrabenazine (TBZ) induced exploratory activity in mice after intraperitoneal administration; format: functional; conditions: ip
Mus musculus [23] = test: Meso form was evaluated for antidepressant activity measured by tetrabenazine (TBZ) induced ptosis in mice after intraperitoneal administration (Two diastereomers (7/6) were present); format: functional; conditions: ip
[24] = Compound was evaluated for 50% lethal dose in mice; LD50 range 300-1000 mg/kg; format: ADME, organism-based; conditions: mouse, in vivo

Structure (SMILES) | ED50 (Mus musculus [2]) | ED50 (Mus musculus [3]) | ED50 (Mus musculus [4]) | ED50 (Mus musculus [5]) | further results
OCCN(CCO)CC(c1ccccc1)c1ccccc1 | 20.3 mg/kg | 15.4 mg/kg | 2 mg/kg |  | LD50 [1]: 300 mg/kg
OCCN(CCO)CC(c1ccccc1)C1CCCCC1 (configuration not stated) |  |  | 22 mg/kg | ~50 mg/kg | 
CC(N)C(c1ccccc1)c1ccccc1 (configuration not stated) |  |  | 3.8 mg/kg | 3.5 mg/kg | 
COc1ccc(C(CN(CCO)CCO)c2ccc(OC)c(OC)c2)cc1OC |  |  |  |  | ED50 (Mus musculus [6]): inactive; ED50 (Mus musculus [7]): inactive
CCN(CCO)CCC(c1ccccc1)c1ccccc1 | > 25 mg/kg | 21.4 mg/kg | 1.9 mg/kg | 10 mg/kg | LD50 [1]: 300 mg/kg
CNCC(c1ccccc1)c1ccc(OC)c(OC)c1 (configuration not stated) |  |  | 11 mg/kg | > 30 mg/kg | 
CNCC(c1ccccc1)c1ccccc1 | 8.2 mg/kg | 9 mg/kg | 2.3 mg/kg | 5 mg/kg | LD50 [8]: 30 mg/kg
CN(C)CCCN1c2ccccc2CCc2ccccc21 [IMIPRAMINE] | 20.3 mg/kg | 14.9 mg/kg | 0.9 mg/kg | 1.3 mg/kg | 
c1ccc2c(c1)cc1n2CCCNC1 [AZEPINDOLE] | 46 mg/kg | 32 mg/kg | 9 mg/kg | 11 mg/kg | LD50 [9]: 100 mg/kg
CN(C)CC(c1ccccc1)c1ccccc1 | 7 mg/kg | 3 mg/kg | 2.5 mg/kg | 9 mg/kg | LD50 [8]: 100 mg/kg
COc1ccc(C(CN(CCO)CCO)c2ccccc2)cc1OC (configuration not stated) |  |  |  |  | ED50 (Mus musculus [6]): inactive; ED50 (Mus musculus [7]): inactive
NCC(c1ccc(Cl)cc1)c1ccc(Cl)cc1 |  |  |  |  | ED50 (Mus musculus [10]): inactive; ED50 (Mus musculus [11]): inactive
NCC(F)(c1ccccc1)c1ccccc1 |  |  |  |  | ED50 (Mus musculus [12]): inactive; ED50 (Mus musculus [10]): inactive
OCCN(CCO)C(Cc1ccccc1)c1ccccc1 (configuration not stated) |  |  |  |  | ED50 (Mus musculus [13]): inactive; ED50 (Mus musculus [14]): inactive
NCC(O)(c1ccccc1)c1ccccc1 | 8.1 mg/kg | 9.9 mg/kg | 6 mg/kg | 9 mg/kg | LD50 [15]: 100 mg/kg
COc1ccc(C(CN)c2ccc(OC)cc2)cc1 |  |  |  |  | ED50 (Mus musculus [16]): > 10 mg/kg; ED50 (Mus musculus [17]): inactive
NCC(c1ccccc1)c1ccccc1 | 10 mg/kg | > 15 mg/kg | 1.7 mg/kg | 1.8 mg/kg | LD50 [8]: 30 mg/kg
COc1ccc(C(CN(C)C)c2ccccc2)cc1OC (configuration not stated) |  |  | 14 mg/kg |  | ED50 (Mus musculus [13]): inactive
COc1ccc(C(CN)c2ccc(OC)c(OC)c2)cc1OC |  |  |  |  | ED50 (Mus musculus [6]): inactive; ED50 (Mus musculus [7]): inactive
OCCN(CCO)CC(c1cccs1)c1cccs1 |  |  |  |  | ED50 (Mus musculus [13]): inactive; ED50 (Mus musculus [14]): inactive
COc1ccc(C(CN)c2ccccc2)cc1OC (configuration not stated) |  |  |  |  | ED50 (Mus musculus [13]): inactive; ED50 (Mus musculus [14]): inactive
CCNCCC(c1ccccc1)c1ccccc1 |  |  | 23 mg/kg | 15 mg/kg | 
CC(=O)OCCN(CCOC(C)=O)CC(c1ccccc1)c1ccccc1 |  |  | 13 mg/kg | 23 mg/kg | 
OCCN(CCO)CCC(c1ccccc1)c1ccccc1 |  |  | 20 mg/kg | 24 mg/kg | 
CNCC(c1ccc(Cl)cc1)c1ccc(Cl)cc1 |  |  |  |  | ED50 (Mus musculus [18]): 14 mg/kg; ED50 (Mus musculus [19]): 13 mg/kg
OCCN(CCO)CC(O)(c1ccccc1)c1ccccc1 |  |  | 8 mg/kg | 80 mg/kg | 
CC(O)CN(CC(C)O)CC(c1ccccc1)c1ccccc1 (configuration not stated) |  |  |  |  | ED50 (Mus musculus [20]): 18 mg/kg; ED50 (Mus musculus [21]): 6 mg/kg; ED50 (Mus musculus [22]): 11 mg/kg; ED50 (Mus musculus [23]): 7 mg/kg
OCCN(CCO)CCc1ccccc1 | > 50 mg/kg | > 50 mg/kg | 12 mg/kg | 17 mg/kg | LD50 [24]: 1000 mg/kg
CN(C)CC(c1ccc(Cl)cc1)c1ccc(Cl)cc1 |  |  | 16 mg/kg | 11 mg/kg | 
COc1ccc(C(CN(CCO)CCO)c2ccc(OC)cc2)cc1 |  |  |  |  | ED50 (Mus musculus [6]): inactive; ED50 (Mus musculus [7]): inactive
